In US10722514B2 (FLX Bio, Inc., priority 2017, dated 2020):

molecular target: T1, recombinant full-length USP7 (Homo sapiens, UniProt Q93009); test: USP7-mediated ubiquitin-rhodamine cleavage assay; format: biochemical; conditions: recombinant full-length USP7 62 pM; ubiquitin-rhodamine 100 nM; 30-minute incubation with compound, 1 hour reaction at room temperature; read-out: Potency: USP7 IC50
T1 construct: A 25 μl reaction volume containing recombinant full-length USP7 (62 pM)
In short: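 Enzyme 62 pM; HEPES pH 7.3/150 mM NaCl/1 mM TCEP/125 μg/ml BSA; 1% DMSO; 30 min cpd preinc RT; Ub-rhodamine 100 nM, 1 h RT, dark; acetic acid stop; fluorescence; IC50 4-param fit.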

T1 sequence (Q93009 whole entry): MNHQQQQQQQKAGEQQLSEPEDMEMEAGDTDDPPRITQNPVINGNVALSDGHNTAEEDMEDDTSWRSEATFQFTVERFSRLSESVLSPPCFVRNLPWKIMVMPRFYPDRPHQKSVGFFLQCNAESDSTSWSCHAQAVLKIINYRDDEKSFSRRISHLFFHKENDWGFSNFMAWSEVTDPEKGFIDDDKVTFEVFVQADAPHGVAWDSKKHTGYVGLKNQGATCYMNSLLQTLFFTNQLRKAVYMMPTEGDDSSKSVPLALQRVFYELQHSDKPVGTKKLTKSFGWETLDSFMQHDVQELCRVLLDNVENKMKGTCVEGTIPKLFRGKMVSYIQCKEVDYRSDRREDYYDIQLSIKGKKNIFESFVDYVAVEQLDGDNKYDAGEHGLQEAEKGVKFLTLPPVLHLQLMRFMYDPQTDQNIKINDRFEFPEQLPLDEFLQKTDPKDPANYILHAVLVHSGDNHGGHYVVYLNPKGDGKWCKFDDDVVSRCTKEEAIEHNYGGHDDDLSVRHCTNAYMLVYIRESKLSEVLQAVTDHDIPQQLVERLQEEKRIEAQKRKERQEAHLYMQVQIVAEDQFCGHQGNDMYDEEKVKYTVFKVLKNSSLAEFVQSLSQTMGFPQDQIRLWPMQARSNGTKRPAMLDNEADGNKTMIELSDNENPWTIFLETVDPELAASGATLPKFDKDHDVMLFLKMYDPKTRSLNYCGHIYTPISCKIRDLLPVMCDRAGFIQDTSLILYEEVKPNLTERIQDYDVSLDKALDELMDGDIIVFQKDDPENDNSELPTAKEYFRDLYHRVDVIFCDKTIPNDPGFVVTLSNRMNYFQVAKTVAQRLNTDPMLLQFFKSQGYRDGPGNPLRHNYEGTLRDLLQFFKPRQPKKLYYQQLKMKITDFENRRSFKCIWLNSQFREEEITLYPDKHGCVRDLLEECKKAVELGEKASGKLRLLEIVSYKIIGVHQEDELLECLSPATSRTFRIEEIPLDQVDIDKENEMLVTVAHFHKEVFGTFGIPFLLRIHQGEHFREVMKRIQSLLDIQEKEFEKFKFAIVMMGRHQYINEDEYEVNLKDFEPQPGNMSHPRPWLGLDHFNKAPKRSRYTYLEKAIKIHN

Structure (SMILES)	IC50 [µM]
CCC(O)c1cc2nccc(-c3cc(Cl)cc(C)c3O[C@H]3CCCNC3)c2s1 (stereo partly drawn) [Example 164, 1-(7-(5-Chloro-3-methyl-2-(((S)-piperidin-3-yl)oxy)phenyl)thieno[3,2-b]pyridin-2-yl)propan-1-ol]	1 to 10
CCC(O)c1cc2nccc(-c3cc(Cl)cc(C)c3OC3CCNCC3)c2s1 (stereo not drawn) [Example 261, 1-(7-(5-Chloro-3-methyl-2-(piperidin-4-yIoxy)phenyl)thieno[3,2-b]pyridin-2-yl)propan-1-ol]	1 to 10
Cc1cc(Cl)cc(-c2ccnc3cc(CN4C(=O)NC(C)(C)C4=O)sc23)c1O[C@@H]1CNC[C@@H]1F [Example 154, 3-((7-(5-Chloro-2-(((3R,4S)-4-fluoropyrrolidin-3-yl)oxy)-3-methylphenyl)thieno[3,2-b]pyridin-2-yl)methyl)-5,5-dimethylimidazolidine-2,4-dione]	< 1

Other lines, results leading:

IC50 [µM]	Structure (SMILES)
< 1	Cc1cc(Cl)cc(-c2ccnc3cc(CN4C(=O)CCC4=O)sc23)c1OC1CCNC1(C)C (stereo not drawn) [Example 343, 1-[[7-[5-chloro-2-(2,2-dimethylpyrrolidin-3-yl)oxy-3-methyl-phenyl]thieno[3,2-b]pyridin-2-yl]methyl]pyrrolidine-2,5-dione]
< 1	Cc1cc(Cl)cc(-c2ccnc3cc(CN4C(=O)CCC4=O)sc23)c1O[C@H]1CCCNC1 [Example 211, (S)-1-((7-(5-Chloro-3-methyl-2-(piperidin-3-yloxy)phenyl)thieno[3,2-b]pyridin-2-yl)methyl)pyrrolidine-2,5-dione]

same assay, conditions: recombinant full-length USP7 62 pM; ubiquitin-rhodamine 100 nM; 30-minute incubation, 1 hour reaction at room temperature; read-out: Potency (USP7 IC50)

Structure (SMILES)	IC50 [µM]
Cc1cc(Cl)cc(-c2ccnc3cc(Cn4c(=O)ccn(CC(F)(F)F)c4=O)sc23)c1OC1CC(N2[C@@H]3CC[C@H]2COC3)C1 (stereo partly drawn) [Example 676, 3-[[7-[5-chloro-3-methyl-2-[3-[(1R,5S)-3-oxa-8-azabicyclo[3.2.1]octan-8-yl]cyclobutoxy]phenyl]thieno[3,2-b]pyridin-2-yl]methyl]-1-(2,2,2-trifluoroethyl)pyrimidine-2,4-dione]	< 1
Cc1cc(Cl)cc(-c2ccnc3cc(Cn4c(=O)ccn(CC(F)(F)F)c4=O)sc23)c1OCC1(C(F)F)CNC1 [Example 673, 3-[[7-[5-chloro-2-[[3-(difluoromethyl)azetidin-3-yl]methoxy]-3-methyl-phenyl]thieno[3,2-b]pyridin-2-yl]methyl]-1-(2,2,2-trifluoroethyl)pyrimidine-2,4-dione]	< 1

same assay, conditions: recombinant full-length USP7 62 pM; ubiquitin-rhodamine 100 nM; 30-minute pre-incubation, 1 hour reaction at room temperature; read-out: Potency (USP7 IC50)

IC50 [µM]	Structure (SMILES)
< 1	Cc1cc(Cl)cc(-c2ccnc3cc(Cn4c(=O)[nH]cc(C)c4=O)sc23)c1O[C@H]1CCCNC1 [Example 479, 3-[[7-[5-chloro-3-methyl-2-[[(3S)-3-piperidyl]oxy]phenyl]thieno[3,2-b]pyridin-2-yl]methyl]-5-methyl-1H-pyrimidine-2,4-dione]
< 1	Cc1cc(Cl)cc(-c2ccnc3cc(Cn4c(=O)[nH]cc(F)c4=O)sc23)c1O[C@H]1CCCNC1 [Example 420, 3-[[7-[5-chloro-3-methyl-2-[[(3S)-3-piperidyl]oxy]phenyl]thieno[3,2-b]pyridin-2-yl]methyl]-5-fluoro-1H-pyrimidine-2,4-dione]
